Laboratory results published in patent publication US20020103228A1, “Composition and method for use of pyridinium derivatives in cosmetic and therapeutic applications” (TORRENT PHARMACEUTICALS LTD., priority 1999, published 2002).

Assays:
[1] = Free radical scavenging activity on ABTS radical cation; assay type: biochemical
Experimental: This method measures the relative ability of free radical scavenging substances to scavenge the ABTS^.+ i.e. 2,2-Azino-bis-(3-ethyl benzo thiazoline-6-sulfonate) radical cation as compared to a standard amount of standard or free radical scavengers antioxidants. Incubation of ABTS with Peroxidase (metmyoglobin) and hydrogen peroxide results in the production of radical cation ABTS^.+. This species is blue-green in colour and can be detected at 730 nm. Antioxidants or free radical scavengers in the added sample that causes suppression of the color to a degree that is proportional to their concentration.
Preparation of Buffer Solutions
A. Phosphate Citrate Buffer (pH 5.0). 48.5 ml of 0.1M citric acid with sufficient 0.2M disodium hydrogen phosphate to produce 100 ml.
B. Phosphate Buffer Saline (PBS): Dissolve 40.0 g of NaCl, 1.0 g of KCl, 1.0 g of KH2PO4 and 3.05 g of Na2HPO4 in 1 liter milli-Q water. Dilute 200 ml of above solution to 1 liter with milli-Q water (pH 7.4-7.6).
C. 3 μM stock solution of Peroxidase was prepared in phosphate buffer saline pH 7.4(PBS).
D. 1.08 mM stock solution of Hydrogen peroxide was prepared in phosphate buffer saline pH 7.4 (PBS).
Preparation of ABTS Stock Solution
1 tablet (10 mg) was dissolved in phosphate citrate buffer (pH 5.0).
Preparation of ABTS Working Solution
5.0 ml of ABTS stock solution was diluted with PBS to 20 ml.
Preparation of Horse Radish Peroxidase Stock Solution
320 μg of the enzyme was dissolved in 2.5 ml of PBS.
Preparation of Hydrogen Peroxide (1.08 mM) Solution
12 μl of Hydrogen Peroxide (30% w/v) was diluted to 100 ml with PBS. […]
Preparation of ABTS Radical Stock Solution
To 18 ml of ABTS stock solution, 100 μl of Horseradish Peroxidase stock solution was added.
As soon as 1.5 ml of hydrogen peroxide solution was added to the above solution, blue-green colour of the ABTS radicals appeared. This solution was incubated at 30° C. for 30 min.
Preparation of Control Solution
980 μl of ABTS radical stock solution was added to an eppendorf tube. To it was added 100 μl of various PBS solution.
Preparation of test Solution
980 μl of ABTS radical stock solutions were added to different eppendorf tubes. To it were added 100 μl of various concentrations of drug solution.
Measurement of Absorbance (O.D)
The absorbance of control and test samples was recorded immediately at 730 nm taking PBS as blank.
Calculation: The percent antioxidant activity was calculated according to the formula. % Antioxidant activity=[O.D of test sample/O.D of control*100]−100.

[2] = target: T1, AGE-BSA (Bos taurus, UniProt P02769); test: In-vitro AGE breaking activity by ELISA; assay type: biochemical, Bovine; conditions: 37° C., 24 hours
T1 construct: Bovine serum albumin (fraction V) (BSA); from tissue; host or cells: bovine serum (fraction V); glycated in house with 1.6 M glucose at 37 °C for 16 weeks
Experimental: AGE breaking activity has been confirmed by the screening procedure as mentioned below:
Methods of experiment: Elisa (Enzyme Linked Immunosorbent Assay)
160 mg/ml of protein, bovine serum albumin, BSA and 1.6M glucose sugar were dissolved in phosphate buffered saline, PBS. Sodium azide was added at 0.02% concentration as a preservative. The solution was filtered asceptically through a […] filter and kept for aging at 37° C. for 16 weeks. After 16 weeks the solution was dialyzed against PBS, aliquoted and stored at −20° C.
To determine the AGE breaking activity, 10 μg/ml of the 16 weeks AGE-BSA was incubated with different concentrations of the test compounds at 37° C. for 24 hours and AGE breaking activity of the test compounds by ELISA was determined.
ELISA was performed as follows
1. Different concentrations of 16 weeks AGE-BSA were coated on a microtiter plate as standard. Each concentration is coated in triplicates.
2. The test samples were coated on microtiter plate at a concentration of 5 ng to 20 ng per well in triplicates
3. The plate was incubated at 37° C. for one hour.
4. After incubation the plate was washed with PBST (PBS with 0.05% Tween 20).
5. Blocking with 5% skimmed milk in PBS at 37° C. for one hour was done.
6. The plate was washed with PBST.
7. Primary antibody against AGE-BSA was added and the plate is incubated at 37° C. for one hour.
8. The plate was washed with PBST
9. Secondary antibody anti rabbit HRPO (Horse-Radish Per Oxidase) conjugate was added and the plate is incubated at 37° C. for one hour.
10. The plate was washed with PBST.
11. Colour development with OPD (orthophenylenediamine dihydrochloride) and hydrogen peroxide was done.
12. OD (optical density) at (450 nm reading-620 nm reading) was measured after incubation at 37° C. for 15 minutes with Microplate ELISA Reader
The breaker activity of the compounds were determined by the following formula: [formula]
OD450-620Control=Absorbance of 20 ng AGE-BSA after incubation at 37° C. for 24 hours without test compound
OD450-620Test=Absorbance of 20 ng AGE-BSA after incubation at 37° C. for 24 hours with required concentration of test compound
Using specific examples, the % AGE breaking activity was calculated and recorded in Table 2.

T1 sequence (P02769 25-607): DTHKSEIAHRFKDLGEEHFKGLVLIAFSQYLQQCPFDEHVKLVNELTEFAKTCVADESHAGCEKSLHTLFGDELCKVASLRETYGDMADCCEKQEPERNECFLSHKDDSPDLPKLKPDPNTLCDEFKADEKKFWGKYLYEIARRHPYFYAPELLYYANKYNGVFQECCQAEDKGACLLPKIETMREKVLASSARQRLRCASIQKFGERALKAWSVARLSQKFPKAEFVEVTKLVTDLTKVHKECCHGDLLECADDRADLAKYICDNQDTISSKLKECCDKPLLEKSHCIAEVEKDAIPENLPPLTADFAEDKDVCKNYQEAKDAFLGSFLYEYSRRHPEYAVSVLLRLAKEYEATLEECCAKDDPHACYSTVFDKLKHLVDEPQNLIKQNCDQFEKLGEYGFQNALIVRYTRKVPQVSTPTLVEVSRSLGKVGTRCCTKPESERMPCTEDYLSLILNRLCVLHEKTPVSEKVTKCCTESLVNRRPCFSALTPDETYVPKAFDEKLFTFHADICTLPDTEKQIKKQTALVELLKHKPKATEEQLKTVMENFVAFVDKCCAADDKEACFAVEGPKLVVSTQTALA

| Structure (SMILES) | Relative Free Radical Scavenging Activity (%) on ABTS ([1]; 11.5 μM) [%] | Relative Free Radical Scavenging Activity (%) on ABTS ([1]; 23.0 μM) [%] | Relative Free Radical Scavenging Activity (%) on ABTS ([1]; 46.0 μM) [%] | Relative Free Radical Scavenging Activity (%) on ABTS ([1]; 92.5 μM) [%] | Relative Free Radical Scavenging Activity (%) on ABTS ([1]; 925 μM) [%] | % Breakage ([2]; 10 mM test compound) [%] | % Breakage ([2]; 25 mM test compound) [%] |
| --- | --- | --- | --- | --- | --- | --- | --- |
| NC(=O)c1cccnc1 [Niacinamide, reference compound] | 0.0 | 2.2 | 3.8 | 3.8 | 9.2 |  |  |
| CCCCNC(=O)c1ccc[n+](CC(=O)c2ccc(Cl)cc2Cl)c1.[Br-] [Compound 97, 1-(2-(2,4-Dichlorophenyl)-2-oxoethyl)-3-(n-butylamino-carbonyl)pyridinium bromide] | 16.5 | 27 | 37.8 | 44.5 | 97.8 |  |  |
| CCCCNC(=O)c1ccc[n+](CC(=O)Nc2ccccc2)c1.[Cl-] [Compound 94, 1-(2-Phenylamino-2-oxoethyl)-3-(n-butylaminocarbonyl)pyridinium chloride] |  |  |  |  |  | 27 |  |
| O=C(C[n+]1cccc(C(=O)NCCOC(=O)c2ccccc2)c1)Nc1ccccc1.[Cl-] [Compound 23, 1-(2-phenylamino-2-oxoethyl)-3-((benzoyloxy)ethylaminocarbonyl)pyridinium chloride] |  |  |  |  |  | 37 | 90 |
| CCOC(=O)C[n+]1cccc(C(=O)OCCOC(=O)c2ccccc2)c1.[Br-] [Compound 17, 1-(2-ethoxy-2-oxoethyl)-3-(2-(benzoyloxy)ethyloxycarbonyl)pyridinium bromide] |  |  |  |  |  | 19 |  |
| O=C(NCCOC(=O)c1ccccc1)c1cc[n+](CC(=O)c2cccs2)cc1.[Br-] [Compound 18, 1-(2-thien-2′-yl-2-oxoethyl)-4-(2-(benzoyloxy)ethylaminocarbonyl)pyridinium bromide] | 41.8 | 59.5 | 75.2 | 91.0 | 100 |  |  |
| O=C(NNC(=O)c1ccc[n+](CC(=O)c2ccc(Cl)s2)c1)c1ccc[n+](CC(=O)c2ccc(Cl)s2)c1.[Cl-].[Cl-] [Compound 62, N,N′-bis[3-carbonyl-1-(2-(5-chlorothien-2-yl)-2-oxoethyl)pyridinium]hydrazine dichloride] |  |  |  |  |  | 78.41 |  |
| NC(=O)c1ccc[n+](CC(=O)c2cccs2)c1.[Br-] [Compound 85, 3-Carbonylamino-1-(2-thien-2′-yl-2-oxoethyl)-pyridinium bromide] |  |  |  |  |  | 3 |  |
| O=C(CCC1CCCCC1)NNC(=O)c1ccc[n+](CC(=O)c2cccs2)c1.[Br-] [Compound 34, 1-(2-thien-2′-yl-2-oxoethyl)-3-((2-(1-oxo-3-cyclohexyl)-ethyl)-hydrazinocarbonyl)-pyridinium bromide] | 50.3 | 53.8 | 65.4 | 80.4 | 100 |  |  |
| O=C=Nc1ccc[n+](CC(=O)c2ccc(Cl)cc2Cl)c1.[Br-] [Compound 82, 3-Carbonylamino-1-(2-(2,4-dichlorophenyl)-2-oxoethyl)-pyridinium bromide] | 26.0 | 44.3 | 62.7 | 75.5 | 100 |  |  |
| CCOC(=O)C1CSCN1C(=O)C[n+]1cccc(C(=O)NNS(C)(=O)=O)c1.[Cl-] (centres unmarked) [Compound 61, 1-(2-(4-carboethoxy-thiazolidin-3-yl)-2-oxoethyl)-3-(methanesulfonyl hydrazinocarbonyl)pyridinium chloride] |  |  |  |  |  | 25.06 |  |
| O=C1CCCC(CCNNC(=O)c2ccc[n+](CC(=O)Nc3ccccc3)c2)C1.[Br-] (centres unmarked) [Compound 35, 1-(2-phenylamino-2-oxoethyl)-3-({2-(1-oxo-3-cyclohexyl)-ethyl}-hydrazinocarbonyl}pyridinium bromide] | 50.5 | 63.4 | 80.9 | 90.6 | 100 |  |  |
| O=C(C[n+]1cccc(C(=O)NNS(=O)(=O)Cc2ccccc2)c1)c1ccccc1.[Br-] [Compound 31, 1-(2-phenyl-2-oxoethyl)-3-((phenylmethyl)sulfonyl hydrazinocarbonyl)pyridinium bromide] | 41.6 | 57.7 | 66.9 | 99.2 | 100 |  |  |
| Cc1ccc(S(=O)(=O)NNC(=O)c2ccc[n+](CC(=O)Nc3ccccc3)c2)cc1.[Cl-] [Compound 27, 1-(2-phenylamino-2-oxoethyl)-3-((4-methylphenyl)sulfonyl hydrazinocarbonyl)pyridinium chloride] | 43.9 | 55.5 | 75.3 | 99.6 | 100 |  |  |
| O=C(NCCOC(=O)c1ccccc1)c1ccc[n+](CC(=O)c2cccs2)c1.[Br-] [Compound 36, 1-(2-thien-2′-yl-2-oxoethyl)-3-[2-(benzoyloxy)ethylaminocarbonyl]-pyridinium bromide] | 27.6 | 59.2 | 74.2 | 83.9 | 100 |  |  |
| O=C(C[n+]1cccc(C(=O)c2ccccc2)c1)c1ccccc1.[Br-] [Compound 98, 1-(2-Phenyl-2-oxoethyl)-3-(1-phenyl-1-oxomethyl)pyridinium bromide] | 7.1 | 26.9 | 51.1 | 78.6 | 99.1 |  |  |
| O=C(NCCOC(=O)c1ccccc1)c1ccc[n+](CC(=O)c2ccc(Cl)cc2Cl)c1.[Br-] [Compound 8, 1-(2-(2′,4′-dichlorophenyl)-2-oxoethyl)-3-(2-(benzoyloxy)ethylamino-carbonyl)pyridinium bromide] | 40.8 | 53.7 | 72.6 | 81.2 | 100 |  |  |
